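Where inhibition never reached the appropriate level, the endpoint shown equals the highest concentration tested. Otherwise, values were interpolated linearly from a five-concentration, 48-hour dose response in 96-well plates. GI50 = concentration required for 50% inhibition of growth.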 Active and inactive are the calls of the source. Cut-off read from the data, not from the text of the source: active = GI50 up to about 1.1 µM and inactive = higher.
Tests used:
Assay in all cases: growth of human tumour cells (NCI), 48 h
[1] = system: DLD-1
[2] = system: DMS-114
[3] = system: HOP-18
[4] = system: KM-20L2
[5] = system: LXFL 529
[6] = system: RXF 631
[7] = system: SNB-78
[8] = system: DMS-273
[9] = system: XF498

SMILES | GI50 [1] | GI50 [2] | GI50 [3] | GI50 [4] | GI50 [5] | GI50 [6] | GI50 [7] | GI50 [8] | GI50 [9]
NCCNCc1c2ccccc2c(CNCCN)c2ccccc12 | 53.1 µM (inactive) | 11.6 µM (inactive) | 25.7 µM (inactive) | 10.3 µM (inactive) | 5.86 µM (inactive) | 45.7 µM (inactive) | 12.7 µM (inactive) | – | –
CC(C)(C)c1ccc2c(c1)OP1(Oc3cccc4cccnc34)(O2)Oc2ccc(C(C)(C)C)cc2O1 | 3.92 µM (inactive) | 0.71 µM (active) | 20.4 µM (inactive) | 4.05 µM (inactive) | – | – | 34.4 µM (inactive) | 3.75 µM (inactive) | 2.72 µM (inactive)
O=P(Nc1ccc(Cl)cc1)(Oc1ccccc1)N(CCCl)CCCl (stereo unspecified) | > 100 µM (inactive) | > 100 µM (inactive) | > 100 µM (inactive) | > 100 µM (inactive) | > 100 µM (inactive) | 63.7 µM (inactive) | > 100 µM (inactive) | > 100 µM (inactive) | –
C[C@]12CCC3[C@@H](C[C@H]4OC(=O)[C@@]35CCC(=O)C=C45)C1CCC2=O (stereo partly specified) | > 100 µM (inactive) | > 100 µM (inactive) | > 100 µM (inactive) | – | > 100 µM (inactive) | – | – | – | > 100 µM (inactive)
O=C(NC(Cc1ccc(I)cc1)C(=O)O)c1cccc(Br)c1 (stereo unspecified) | > 100 µM (inactive) | 48 µM (inactive) | > 82.4 µM (inactive) | > 100 µM (inactive) | – | – | > 100 µM (inactive) | > 100 µM (inactive) | –
CSc1nc(NC2OCC(O)C(O)C2O)c(N)c(=O)n1C (stereo unspecified) | > 100 µM (inactive) | – | > 100 µM (inactive) | > 100 µM (inactive) | – | – | > 100 µM (inactive) | > 100 µM (inactive) | > 100 µM (inactive)
CC(C)(C)c1nc2c(o1)/C(=N\c1ccccc1)c1ccccc1C2=O | 4.14 µM (inactive) | – | 9.53 µM (inactive) | 27.8 µM (inactive) | 5.48 µM (inactive) | 22.5 µM (inactive) | 4.27 µM (inactive) | 3.71 µM (inactive) | 3.68 µM (inactive)
CCOC(=O)CC1(c2cccc3ccccc23)OC(=O)c2ccccc21 (stereo unspecified) | 8.69 µM (inactive) | 30.6 µM (inactive) | 40.4 µM (inactive) | 45 µM (inactive) | 51.2 µM (inactive) | – | 66.4 µM (inactive) | 41.7 µM (inactive) | –
C=C1C(O)C2(O)OCC34C(CC5C(C)=CC(=O)C(O)C5(C)C23)OC(=O)C(OC(=O)C/C=C/CCCCCCCC)C14 (stereo unspecified) | 0.02 µM (active) | 0.02 µM (active) | 0.0776 µM (active) | 0.0208 µM (active) | – | – | 0.0219 µM (active) | 0.02 µM (active) | 0.0221 µM (active)
Nc1nc(Cl)cc(NCCCCO)n1 | > 100 µM (inactive) | > 100 µM (inactive) | – | > 100 µM (inactive) | > 100 µM (inactive) | > 100 µM (inactive) | 15.9 µM (inactive) | > 100 µM (inactive) | –
O=S(O)CCCCCSSc1ccccc1 | 54.8 µM (inactive) | 23.6 µM (inactive) | – | – | 17 µM (inactive) | – | 41 µM (inactive) | – | 24.2 µM (inactive)
CN(C)CN(C)c1nc(N(C)C)nc(N(C)CN(C)C)n1 | 42.7 µM (inactive) | – | > 100 µM (inactive) | 74.5 µM (inactive) | 30.3 µM (inactive) | – | – | 17.5 µM (inactive) | 96.2 µM (inactive)
Cc1ccc(NC(=O)C2C(=O)N(c3ccc(C)c(C)c3)C(=O)/C2=N\NC(N)=S)cc1C (stereo unspecified) | 79.6 µM (inactive) | – | – | > 100 µM (inactive) | > 100 µM (inactive) | > 100 µM (inactive) | > 100 µM (inactive) | > 100 µM (inactive) | 97.1 µM (inactive)
